Test results from PMC2790922 (Molecular pharmaceutics, 2009).

Legend:
MMP-2 from HUVECs = assay: Peptide cleavage by MMP-2 in PMA-treated HUVECs culture; type: cell-based, human; settings: 25 µM GM6001, 30 min pre-treatment; 10 µM MMP-RGD; 24 h; p = 0.041
[1] = biological target: T1, human recombinant active MMP-2 (Homo sapiens, UniProt P08253); assay: Cleavage of peptides by purified active MMP-2; type: biochemical; settings: 10 µM GM6001; 9 nM active MMP-2; 37°C, 2 h; FAM fluorescence
T1 sequence (P08253 110-660): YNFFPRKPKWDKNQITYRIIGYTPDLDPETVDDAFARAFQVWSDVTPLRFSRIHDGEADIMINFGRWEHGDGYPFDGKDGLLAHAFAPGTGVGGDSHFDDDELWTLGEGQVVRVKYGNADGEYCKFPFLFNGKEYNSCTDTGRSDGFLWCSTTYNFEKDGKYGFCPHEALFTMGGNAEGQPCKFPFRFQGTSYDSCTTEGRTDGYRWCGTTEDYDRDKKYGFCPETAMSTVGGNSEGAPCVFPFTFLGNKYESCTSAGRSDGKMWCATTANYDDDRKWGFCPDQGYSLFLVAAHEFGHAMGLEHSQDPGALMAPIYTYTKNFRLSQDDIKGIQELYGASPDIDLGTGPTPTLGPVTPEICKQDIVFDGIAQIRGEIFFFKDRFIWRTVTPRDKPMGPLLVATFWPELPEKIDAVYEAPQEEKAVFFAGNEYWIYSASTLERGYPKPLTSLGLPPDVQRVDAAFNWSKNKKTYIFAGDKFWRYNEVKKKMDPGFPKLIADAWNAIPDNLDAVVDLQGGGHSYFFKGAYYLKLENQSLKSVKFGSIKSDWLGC

inhibition of cleavage of MMP-RGD and MMP-control by purified MMP-2 [1]: inhibited
Compound: CNC(=O)[C@H](Cc1c[nH]c2ccccc12)NC(=O)[C@@H](CC(=O)NO)CC(C)C [GM6001]
inhibition of cleavage of MMP-RGD by PMA-treated HUVECs (MMP-2 from HUVECs): inhibited
